T1: Pib2 442–625 (Saccharomyces cerevisiae, UniProt P53191)
T1 construct: FYVE domain fragment, start of FYVE domain to beginning of tail motif, residues 442-625; purified; predominantly monomeric by SEC-MALS
T1 sequence (P53191 442-625): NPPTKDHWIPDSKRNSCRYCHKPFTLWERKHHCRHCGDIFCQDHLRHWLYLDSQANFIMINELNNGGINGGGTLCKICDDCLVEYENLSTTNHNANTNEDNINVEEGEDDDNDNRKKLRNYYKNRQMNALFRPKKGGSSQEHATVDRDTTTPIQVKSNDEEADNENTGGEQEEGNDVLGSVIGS

T2: EEA1 1347–1411 (Homo sapiens, UniProt Q15075)
T2 construct: purified; largely monomeric by SEC-MALS
T2 sequence (Q15075 1347-1411): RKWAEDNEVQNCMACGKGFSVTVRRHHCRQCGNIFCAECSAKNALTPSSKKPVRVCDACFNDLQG

T3: Pib2 419–625 (Saccharomyces cerevisiae, UniProt P53191)
T3 construct: FYVE domain fragment starting 23 residues before the FYVE core, residues 419-625; purified; predominantly monomeric by SEC-MALS
T3 sequence (P53191 419-625): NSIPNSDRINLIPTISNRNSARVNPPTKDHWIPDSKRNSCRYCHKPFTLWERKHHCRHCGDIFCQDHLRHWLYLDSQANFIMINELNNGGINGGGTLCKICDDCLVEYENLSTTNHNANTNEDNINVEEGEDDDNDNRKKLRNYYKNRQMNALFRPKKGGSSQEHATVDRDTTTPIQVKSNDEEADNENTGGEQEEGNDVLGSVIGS

T4: EEA1 1287–1411 (Homo sapiens, UniProt Q15075)
T4 construct: purified; largely dimeric by SEC-MALS
T4 sequence (Q15075 1287-1411): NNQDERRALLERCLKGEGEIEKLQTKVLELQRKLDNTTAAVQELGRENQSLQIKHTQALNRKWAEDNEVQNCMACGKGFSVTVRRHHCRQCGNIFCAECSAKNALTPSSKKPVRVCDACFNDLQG

B1: EEA1 1287–1411 (domain or fragment, UniProt Q15075 1287-1411, looked up)
chain: NNQDERRALLERCLKGEGEIEKLQTKVLELQRKLDNTTAAVQELGRENQSLQIKHTQALNRKWAEDNEVQNCMACGKGFSVTVRRHHCRQCGNIFCAECSAKNALTPSSKKPVRVCDACFNDLQG
notes: also called longer EEA1 FYVE construct; source: purified

Experiments:
[1] = target: T1, Pib2 442–625; experiment: ITC; format: binding
[2] = target: T2, EEA1 1347–1411; experiment: ITC; format: binding
[3] = target: T3, Pib2 419–625; experiment: ITC; format: binding
[4] = target: T4, EEA1 1287–1411; experiment: ITC; format: binding
[5] = target: the molecule itself; experiment: SEC-MALS; Superdex 75 10/300 in 20 mM Tris-HCl pH 7.4, 150 mM NaCl, 1.93 mM β-mercaptoethanol, room temperature; 500 µl of each protein loaded at 50 or 100 µM as indicated; detectors at 25°C

| Molecule | Kd [1] [µM] | Kd [2] [µM] | Kd [3] [µM] | Kd [4] [µM] | stoichiometry N [5] |
| --- | --- | --- | --- | --- | --- |
| CCCC(=O)OC[C@H](COP(=O)(O)O[C@@H]1[C@H](O)[C@H](OP(=O)(O)O)[C@@H](O)[C@H](O)[C@H]1O)OC(=O)CCC [PI3P diC4] | 736 | – | – | – | – |
| O=P(O)(O)O[C@@H]1[C@H](O)[C@H](OP(=O)(O)O)[C@@H](O)[C@H](O)[C@H]1O [inositol 1,3-bisphosphate] | 212 | > 300 | > 290 | ~95.8 | – |
| B1 | – | – | – | – | 2 |

Reference: PMC9584352, “Conserved Pib2 regions have distinct roles in TORC1 regulation at the vacuole” (Journal of Cell Science, 2022)
